Measurements as given in patent EP1268431B1 (Wyeth, priority 2000, dated 2001).
Where “and” joins values, the source holds several entries; their conditions need not be identical. Equal values may be shown once. Read-outs that look alike come from different tables or passages of the source.

How the values were obtained:
c-Src = biological target: T1, c-Src (Homo sapiens, UniProt P12931); test: c-Src Kinase Assay (ELISA format); format: biochemical
T1 construct: purchased Upstate Biotechnologies
T1 sequence (P12931 whole entry, species assumed): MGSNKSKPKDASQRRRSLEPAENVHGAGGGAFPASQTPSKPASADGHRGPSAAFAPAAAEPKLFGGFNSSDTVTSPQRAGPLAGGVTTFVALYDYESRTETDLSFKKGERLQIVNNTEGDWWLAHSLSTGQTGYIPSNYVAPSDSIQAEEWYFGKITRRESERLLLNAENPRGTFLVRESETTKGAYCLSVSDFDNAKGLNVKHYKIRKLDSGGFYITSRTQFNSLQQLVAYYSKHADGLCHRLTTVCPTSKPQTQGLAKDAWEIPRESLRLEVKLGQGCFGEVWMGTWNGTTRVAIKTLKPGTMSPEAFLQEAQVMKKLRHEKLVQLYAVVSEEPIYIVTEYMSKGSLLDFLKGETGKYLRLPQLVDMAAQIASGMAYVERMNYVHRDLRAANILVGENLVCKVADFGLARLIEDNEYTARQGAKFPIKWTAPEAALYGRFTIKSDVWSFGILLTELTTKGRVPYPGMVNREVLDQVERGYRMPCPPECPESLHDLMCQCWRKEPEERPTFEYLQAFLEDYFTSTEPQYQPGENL
Summary of the method: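 Partially purified Src preincubated with compound and biotinylated peptide 10 min at 30 °C in Tris-HCl pH 7.5 with MgCl2, EGTA, vanadate; ATP-started reaction ran 1 h at 30 °C, EDTA-stopped. Phosphopeptide captured on streptavidin, detected by HRP anti-phosphotyrosine; % inhibition = (1 − Abs/Abs(max)) × 100.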

[1] = tested on: Rat2 fibroblasts stably transformed with a plasmid containing a CMV promotor controlled v-Src/Hu c-Src fusion gene; test: Anchorage Independent Src-transformed Fibroblast Proliferation Assay
[2] = Rattus norvegicus, Rat2, 120 h, read-out: anch-indep src-tx fib IC50, suspension growth, MTS on Day 5
[3] = read-out: anch-indep src-tx fib IC50, suspension growth, MTS on Day 5

Structure (SMILES)	IC50 (c-Src)	IC50 [1, 2] [nM]	IC50 [1, 3] [nM]
COc1cc(Nc2c(C#N)cnc3cc(-c4ncccc4CN4CCOCC4)ccc23)c(Cl)cc1Cl [Example 111, 4-(2,4-Dichloro-5-methoxyanilino)-7-[3-(morpholin-4-ylmethyl)-pyridin-2-yl]-3-quinolinecarbonitrile]	410 nM	> 10000	
COc1cc(Nc2c(C#N)cnc3cc(-c4ccc(CO)cc4)ccc23)c(Cl)cc1Cl [Example 101, 4-(2,4-Dichloro-5-methoxyanilino)-7-[4-(hydroxymethyl)phenyl]-3-quinolinecarbonitrile]	15 nM	> 10000	
N#Cc1cnc2cc(C=CCCCN3CCOCC3)ccc2c1Nc1ccc(Cl)cc1Cl (mixture of isomers) [Example 12, 4-(2,4-Dichloroanilino)-7-[(E/Z)-5-(4-morpholin)-1-pentenyl]-3-quinolinecarbonitrile]	77 nM	> 10000	
COc1cc(Nc2c(C#N)cnc3cc(-c4ccc(CN5CCCCC5)s4)ccc23)c(Cl)cc1Cl [Example 78, 4-(2,4-Dichloro-5-methoxyanilino)-7-[5-(1-piperidinylmethyl)-2-thienyl]-3-quinolinecarbonitrile]	1.3 nM	140	
COc1cc(Nc2c(C#N)cnc3cc(-c4cnc(N5CCOCC5)nc4)ccc23)c(Cl)cc1Cl [Example 186, 4-(2,4-dichloro-5-methoxyanilino)-7-[2-(4-morpholinyl)-5-pyrimidinyl]-3-quinolinecarbonitrile]	30 nM	> 10000	
CN(C)CC#Cc1ccc2c(Nc3ccc(Cl)cc3Cl)c(C#N)cnc2c1 [Example 15, 4-(2,4-Dichloroanilino)-7-[3-(dimethylamino)-1-propynyl]-3-quinolinecarbonitrile]	63 nM	> 10000	
COc1cc(Nc2c(C#N)cnc3cc(-c4ccccc4C=O)ccc23)c(Cl)cc1Cl [Example 114, 4-(2,4-Dichloro-5-methoxyanilino)-7-(2-formylphenyl)-3-quinolinecarbonitrile]	2200 nM	> 10000	
N#Cc1cnc2cc(-c3ccc(CCN4CCOCC4)s3)ccc2c1Nc1ccc(Cl)cc1Cl [Example 9, 4-(2,4-Dichloroanilino)-7-{5-[2-(4-morpholinyl)ethyl]-2-thienyl}-3-quinolinecarbonitrile]	6 nM	2700	
COc1cc(Nc2c(C#N)cnc3cc(-c4ccc5ccccc5c4)ccc23)c(Cl)cc1Cl [Example 117, 4-(2,4-Dichloro-5-methoxyanilino)-7-(2-naphthyl)-3-quinolinecarbonitrile]	210 nM and 160 nM and 120 nM	6900	
COc1cc(Nc2c(C#N)cnc3cc(-c4cccc(CCN5CCOCC5)c4)ccc23)c(Cl)cc1Cl [Example 28, 4-(2,4-Dichloro-5-methoxyanilino)-7-{3-[2-(4-morpholinyl)ethyl]phenyl}-3-quinolinecarbonitrile]	25 nM	4100	
COc1cc(Nc2c(C#N)cnc3cc(-c4ccc(CN5CCN(C)CC5)n4C)ccc23)c(Cl)cc1Cl [Example 71, 4-(2,4-Dichloro-5-methoxyanilino)-7-{1-methyl-5-[(4-methyl-1-piperazinyl)methyl]-1H-pyrrol-2-yl}-3-quinolinecarbonitrile]	26 nM and 24 nM	6800	
COc1cc(Nc2c(C#N)cnc3cc(/C=C/c4ccccc4)ccc23)c(Cl)cc1Cl [Example 139, 4-(2,4-dichloro-5-methoxyanilino)-7-[(E)-2-phenylethenyl]-3-quinolinecarbonitrile]	300 nM and 340 nM	> 10000	

The next lines start with results.

IC50 (c-Src)	Structure (SMILES)	IC50 [1, 2] [nM]	IC50 [1, 3] [nM]
3.6 nM and 6 nM and 4.9 nM	N#Cc1cnc2cc(-c3csc(CN4CCOCC4)c3)ccc2c1Nc1ccc(Cl)cc1Cl [Example 25, 4-(2,4-Dichloroanilino)-7-[5-(4-morpholinylmethyl)-3-thienyl]-3-quinolinecarbonitrile]	1300	930
4.1 nM and 2.5 nM	COc1cc(Nc2c(C#N)cnc3cc(-c4ccc(CN5CCOCC5)cc4)ccc23)c(Cl)cc1Cl [Example 29, 4-(2,4-Dichloro-5-methoxyanilino)-7-[4-(4-morpholinylmethyl)phenyl]-3-quinolinecarbonitrile]	540	500
950 nM	COc1cc(Nc2c(C#N)cnc3cc(-c4cncn4CCN4CCOCC4)ccc23)c(Cl)cc1Cl [Example 64, 4-(2,4-Dichloro-5-methoxyanilino)-7-{1-[2-(4-morpholinyl)ethyl]-1H-imidazol-5-yl}-3-quinolinecarbonitrile]	> 10000	
2.1 nM	COc1cc(Nc2c(C#N)cnc3cc(-c4csc(CN5CCC(O)CC5)c4)ccc23)c(Cl)cc1Cl [Example 192, 4-(2,4-dichloro-5-methoxyanilino)-7-{5-[(4-hydroxy-1-piperidnyl)methyl]-3-thienyl}-3-quinolinecarbonitrile]	170	
76 nM	COc1cc(Nc2c(C#N)cnc3cc(-c4ccc(CO)n4C)ccc23)c(Cl)cc1Cl [Example 162, 4-(2,4-dichloro-5-methoxyanilino)-7-[5-(hydroxymethyl)-1-methyl-1H-pyrrol-2-yl]-3-quinolinecarbonitrile]	> 10000	
